The numbers were not newly measured in patent US20170002035A1, “NOVEL CRYSTALLINE FORMS OF AN ANTIVIRAL BENZIMIDAZOLE COMPOUND” (GlaxoSmithKline LLC, priority 1998, published 2017), which cites them from elsewhere.

For the data set the following is noted: amorphous material as disclosed in WO96/01833.

Structures are written as SMILES.

In the case of `CC(C)Nc1nc2cc(Cl)c(Cl)cc2n1[C@H]1O[C@@H](CO)[C@H](O)[C@@H]1O` [Form 1263W94, 5,6-dichloro-2-(isopropylamino)-1-(β-L-ribofuranosyl)-1H-benzimidazole], the hygroscopicity result is “hygroscopic”.
